# Entries after “also recorded” stand apart in the source; their conditions may differ. Marks after values point to notes of the source that are not given here.
# Tests used:
# Type in all cases: cell-based, Saccharomyces cerevisiae
# S. cerevisiae JAY 270 = assay: Screening of growth in 24-well plates on YPDA; settings: for Cell growth score (colony size): YPDA, 30° C., 24 h
# Summary of the method: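 Washed S. cerevisiae JAY 270 (10 μL at OD600 0.02 or 0.2) spotted onto YPDA containing 0.03–0.2% (w/v) compound, with DMSO-matched controls for TrpOH and TyrOH. Plates were incubated 24 h at 30 °C, four biological replicates each, and colony size was scored visually from 0 to +++.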
# S. cerevisiae ATCC 26603 = assay: Serum-bottle cultivation in YPD, different yeast strains; settings: 0.2%
# Procedure: (§1) Analytical methods: Cell growth was evaluated by monitoring OD600 and cell dry mass concentration. For dry mass measurements, 1.0 mL of culture was transferred to a pre-dried and pre-weighed 2-mL centrifuge tube. The tubes were centrifuged for 10 min at 14000 rpm using a microcentrifuge, and then the cell pellets were dried in an oven for 3 days at 65° C. The cell dry mass was determined by subtracting the initial tube mass from the dried mass of tube with cells. The concentrations of glucose, ethanol, and glycerol were measured via HPLC (Shimadzu LC20A series) outfitted with a refractive index detector and using an Aminex HPX-87H (300×7.8 mm) organic acid column and Cation H+ guard cartridge (Bio Rad Laboratories, Hercules, CA). The column was maintained at 65° C. and the mobile phase was 5 mM sulfuric acid with a flow rate of 0.6 mL/min. Standard compound solutions were used to calibrate the HPLC. Each sample was analyzed three times by HPLC.
# (§2) Procedure: Seven yeast strains (S. cerevisiae ATCC 26603, S. cerevisiae JAY 238, S. cerevisiae JAY 240, S. cerevisiae JAY 241, S. paradoxus JAY 1502, S. kudriavzezii JAY 1503, and S. mikatae JAY 1504) were pre-cultured in 30 mL of YPD medium in 100 mL serum bottle overnight in a shaker at 30° C. and 200 rpm. The precultured yeast cells of each strains were collected and washed twice. Finally, the cell pellet was resuspended in about 10 mL 0.8% (w/v) NaCl and the OD600 measured. TyrOH, PheOH, and TrpOH were added to 30 mL of YPD medium in 100-mL serum bottles at 0.2% (w/v) respectively. The same amount of DMSO was added in YPD medium and served as control to the TrpOH and TyrOH treatments. The prepared yeast cells were added to obtain the initial cell concentration at OD600=0.2. The serum bottles were sealed and cultured in a shaker at 30° C. and 200 rpm for 24 h. There were three biological replicates for each treatment.
# S. cerevisiae JAY 238 = assay: as above; settings: 0.2%
# Procedure: as §1, §2
# S. cerevisiae JAY 240 = assay: as above; settings: 0.2%
# Procedure: as §1, §2
# S. cerevisiae JAY 241 = assay: as above; settings: 0.2%
# Procedure: as §1, §2
# [1] = S. cerevisiae ATCC 26603, YPD (Table 9B)
# [2] = S. cerevisiae JAY 238, YPD (Table 9B)
# [3] = S. cerevisiae JAY 240, YPD (Table 9B)
# [4] = S. cerevisiae JAY 241, YPD (Table 9B)
smiles,measurement,setting,value
"OCCc1c[nH]c2ccccc12 [TrpOH, tryptophol]",Cell growth score (colony size),S. cerevisiae JAY 270; 0.03% (w/v),+++
same,Cell growth score (colony size),S. cerevisiae JAY 270; 0.05% (w/v),++
same,Cell growth score (colony size),S. cerevisiae JAY 270; 0.10% (w/v),+
same,Cell growth score (colony size),S. cerevisiae JAY 270; 0.20% (w/v),0
same,Concentration at which cell growth was reduced in the plate assay,S. cerevisiae JAY 270; molar equivalent of the % w/v value,3.1 mM
same,Effect on cell growth in the plate assay (words),"S. cerevisiae JAY 270; tested concentrations, 24-well plates",inhibited growth; also recorded: reduced the growth
same,Concentration at which cell growth was reduced/inhibited in the plate assay,"S. cerevisiae JAY 270; w/v, 24-well plates",0.05%
same,Biomass Yield,S. cerevisiae ATCC 26603; S. cerevisiae ATCC 26603,0.059 ± 0.001 g/g
same,Biomass yield % change vs. control,S. cerevisiae ATCC 26603; S. cerevisiae ATCC 26603,−17* %
same,EtOH yield,S. cerevisiae ATCC 26603; S. cerevisiae ATCC 26603,0.495 ± 0.008 g/g
same,Glycerol yield,S. cerevisiae ATCC 26603; S. cerevisiae ATCC 26603,0.054 ± 0.005 g/g
same,Glycerol yield % change vs. control,S. cerevisiae ATCC 26603; S. cerevisiae ATCC 26603,−25* %
same,DCW,"S. cerevisiae ATCC 26603; S. cerevisiae ATCC 26603, YPD",1.13 mg
same,DCW Δ vs. ref,"S. cerevisiae ATCC 26603; S. cerevisiae ATCC 26603, YPD",64.2%
same,OD600,"S. cerevisiae ATCC 26603; S. cerevisiae ATCC 26603, YPD",0.77
same,OD600 Δ vs. ref,"S. cerevisiae ATCC 26603; S. cerevisiae ATCC 26603, YPD",54.8%
same,Biomass Yield,S. cerevisiae ATCC 26603; [1],0.059 + 0.001 g/g
same,Biomass yield Δ vs. ref,S. cerevisiae ATCC 26603; [1],−16.7%
same,Ethanol yield,S. cerevisiae ATCC 26603; [1],0.495 ± 0.008 g/g
same,Ethanol yield Δ vs. ref,S. cerevisiae ATCC 26603; [1],14.2%
same,Glycerol yield,S. cerevisiae ATCC 26603; [1],0.054 ± 0.005 g/g
same,Glycerol yield Δ vs. ref,S. cerevisiae ATCC 26603; [1],−24.74%
same,Biomass Yield,S. cerevisiae JAY 238; S. cerevisiae JAY 238,0.060 ± 0.000 g/g
same,Biomass yield % change vs. control,S. cerevisiae JAY 238; S. cerevisiae JAY 238,−12* %
same,EtOH yield,S. cerevisiae JAY 238; S. cerevisiae JAY 238,0.482 ± 0.017 g/g
same,Glycerol yield,S. cerevisiae JAY 238; S. cerevisiae JAY 238,0.023 ± 0.002 g/g
same,Glycerol yield % change vs. control,S. cerevisiae JAY 238; S. cerevisiae JAY 238,−49* %
same,Glycerol yield decrease from control,S. cerevisiae JAY 238; S. cerevisiae JAY 238,42%
same,DCW,"S. cerevisiae JAY 238; S. cerevisiae JAY 238, YPD",1.30 mg
same,DCW Δ vs. ref,"S. cerevisiae JAY 238; S. cerevisiae JAY 238, YPD",46.4%
same,OD600,"S. cerevisiae JAY 238; S. cerevisiae JAY 238, YPD",0.39
same,OD600 Δ vs. ref,"S. cerevisiae JAY 238; S. cerevisiae JAY 238, YPD",16.7%
same,Biomass Yield,S. cerevisiae JAY 238; [2],0.060 + 0.000 g/g
same,Biomass yield Δ vs. ref,S. cerevisiae JAY 238; [2],−11.8%
same,Ethanol yield,S. cerevisiae JAY 238; [2],0.482 ± 0.017 g/g
same,Ethanol yield Δ vs. ref,S. cerevisiae JAY 238; [2],14.7%
same,Glycerol yield,S. cerevisiae JAY 238; [2],0.020 ± 0.002 g/g
same,Glycerol yield Δ vs. ref,S. cerevisiae JAY 238; [2],−48.90%
same,Biomass Yield,S. cerevisiae JAY 240; S. cerevisiae JAY 240,0.055 ± 0.006 g/g
same,Biomass yield % change vs. control,S. cerevisiae JAY 240; S. cerevisiae JAY 240,−24* %
same,EtOH yield,S. cerevisiae JAY 240; S. cerevisiae JAY 240,0.464 ± 0.053 g/g
same,Glycerol yield,S. cerevisiae JAY 240; S. cerevisiae JAY 240,0.035 ± 0.000 g/g
same,Glycerol yield % change vs. control,S. cerevisiae JAY 240; S. cerevisiae JAY 240,−12* %
same,DCW,"S. cerevisiae JAY 240; S. cerevisiae JAY 240, YPD",1.55 mg
same,DCW Δ vs. ref,"S. cerevisiae JAY 240; S. cerevisiae JAY 240, YPD",50.8%
same,OD600,"S. cerevisiae JAY 240; S. cerevisiae JAY 240, YPD",1.12
same,OD600 Δ vs. ref,"S. cerevisiae JAY 240; S. cerevisiae JAY 240, YPD",45.0%
same,Biomass Yield,S. cerevisiae JAY 240; [3],0.055 + 0.006 g/g
same,Biomass yield Δ vs. ref,S. cerevisiae JAY 240; [3],−23.5%
same,Ethanol yield,S. cerevisiae JAY 240; [3],0.464 ± 0.053 g/g
same,Ethanol yield Δ vs. ref,S. cerevisiae JAY 240; [3],14.5%
same,Glycerol yield,S. cerevisiae JAY 240; [3],0.035 ± 0.000 g/g
same,Glycerol yield Δ vs. ref,S. cerevisiae JAY 240; [3],−11.63%
same,Biomass Yield,S. cerevisiae JAY 241; S. cerevisiae JAY 241,0.063 ± 0.004 g/g
same,Biomass yield % change vs. control,S. cerevisiae JAY 241; S. cerevisiae JAY 241,+8.6%
same,EtOH yield,S. cerevisiae JAY 241; S. cerevisiae JAY 241,0.435 ± 0.035 g/g
same,Glycerol yield,S. cerevisiae JAY 241; S. cerevisiae JAY 241,0.041 ± 0.004 g/g
same,Glycerol yield % change vs. control,S. cerevisiae JAY 241; S. cerevisiae JAY 241,−26* %
same,DCW Δ vs. ref,"S. cerevisiae JAY 241; S. cerevisiae JAY 241, YPD",58.5%
same,OD600,"S. cerevisiae JAY 241; S. cerevisiae JAY 241, YPD",1.00
same,OD600 Δ vs. ref,"S. cerevisiae JAY 241; S. cerevisiae JAY 241, YPD",50.1%
same,Biomass Yield,S. cerevisiae JAY 241; [4],0.063 + 0.004 g/g
same,Biomass yield Δ vs. ref,S. cerevisiae JAY 241; [4],8.6%
same,Ethanol yield,S. cerevisiae JAY 241; [4],0.435 ± 0.035 g/g
same,Ethanol yield Δ vs. ref,S. cerevisiae JAY 241; [4],13.8%
same,Glycerol yield,S. cerevisiae JAY 241; [4],0.041 ± 0.004 g/g
same,Glycerol yield Δ vs. ref,S. cerevisiae JAY 241; [4],−25.72%

# From patent US11827917B1, “Methods for the conversion of fermentable sugars to ethanol” (Colorado State University Research Foundation, priority 2020, dated 2023)
